Measurements as given in PubChem BioAssay (NCI).
“And” between values parts separate entries of the source, which are not always exact repeats. Identical values can stand only once.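 These data come from cells grown in 96-well plates and exposed to compound for 48 hours at five concentrations. Abbreviation: GI50, concentration required for 50% inhibition of growth. The concentration for full growth arrest is given as TGI.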

What was measured:
Test in all cases: NCI tumour cell line growth inhibition, 48 h
[1] = test system: A498 renal
[2] = test system: BT-549 breast
[3] = test system: CCRF-CEM leukemia
[4] = test system: NCI-H522 lung
[5] = test system: NCI/ADR-RES ovarian
[6] = test system: SK-OV-3 ovarian
[7] = test system: SNB-19 CNS
[8] = test system: T-47D breast
[9] = test system: UACC-257 melanoma
[10] = test system: UACC-62 melanoma

SMILES	TGI [1]	TGI [2]	TGI [3]	TGI [4]	TGI [5]	TGI [6]	TGI [7]	TGI [8]	TGI [9]	TGI [10]	GI50 [3]	GI50 [10]
O=[N+]([O-])C(=C(N1CCCCC1)N1CCCCC1)/C(Cl)=C(\Cl)Br	42.2 µM	> 100 µM	42.4 µM	33.9 µM	91.8 µM	> 100 µM	87.1 µM	65.1 µM	61.6 µM	28.1 µM	–	–
COC(=O)c1c(C)cccc1/C=C1/Cc2c(C)cccc2C1=O	> 100 µM	> 100 µM	–	> 100 µM	> 100 µM	> 100 µM	–	> 100 µM	> 100 µM	> 100 µM	–	–
CC(C)=CCc1c2c(c3occ(-c4ccc(O)c(O)c4)c(=O)c3c1O)C=CC(C)(C)O2	29 µM	13.8 µM	2.71 µM	0.458 µM	5.87 µM	20.5 µM	5.02 µM	10.5 µM	4.89 µM	14.2 µM	–	–
O=c1cc(/C=C/c2ccc(O)c(O)c2)oc(/C=C/c2ccc(O)c(O)c2)c1	14.4 µM	15.2 µM	7.74 µM	4 µM	> 65.3 µM	21.8 µM	18.2 µM	9.5 µM	17.8 µM	6.43 µM	–	–
CN(C)c1nc(=NCc2ccncc2)ss1	> 100 µM	44 µM	49.6 µM	> 100 µM	> 100 µM	> 64.6 µM	> 100 µM	> 51.8 µM	> 61.2 µM	> 48.1 µM	–	–
O=C(CN1CCCCC1)CC(O)(C(F)(F)F)C(F)(F)F	> 100 µM	> 100 µM	> 100 µM	> 100 µM	> 100 µM	> 100 µM	> 100 µM	> 100 µM	> 100 µM	> 100 µM	–	–
Cc1ccc(S(=O)(=O)Oc2cc(N)c3c(n2)CCC3)cc1	> 100 µM	> 100 µM	> 100 µM	–	> 100 µM	> 100 µM	> 100 µM	> 100 µM	> 100 µM	> 100 µM	–	–
CC(C)(C)NC(=O)[C@H]1CC[C@H]2[C@@H]3CC=C4NC(=O)CC[C@]4(C)[C@H]3CC[C@]12C	> 100 µM	> 100 µM	> 100 µM	> 100 µM	> 100 µM	> 100 µM	> 100 µM	> 100 µM	> 100 µM	> 100 µM	–	–
NC(CSCc1ccccc1)C(=O)O (stereo unspecified)	> 100 µM	> 100 µM	> 100 µM	> 100 µM	> 100 µM	> 100 µM	> 100 µM	> 100 µM	> 100 µM	> 100 µM	–	–
O=C1/C(=C/c2ccccc2S)N=C(c2ccccc2)N1c1nc2ccc(Sc3ccccc3)cc2[nH]1	> 100 µM	61.1 µM	> 100 µM	54.2 µM	50.4 µM	> 100 µM	> 100 µM	> 100 µM	69.2 µM	73.5 µM	–	–
Cc1ccccc1OC(C)C(=O)NN1C(=O)CC(=O)N(c2ccc(Cl)cc2)C1=S (stereo unspecified)	64.6 µM	> 100 µM	57 µM	> 100 µM	> 100 µM	> 100 µM	> 100 µM	> 100 µM	> 100 µM	> 100 µM	–	–
COC(=O)NN(C(=O)OC)c1c(-c2ccccc2)nc(SC)n1N	> 100 µM	> 100 µM	> 100 µM	> 100 µM	> 100 µM	–	> 100 µM	> 100 µM	> 100 µM	> 100 µM	–	–
COc1ccc(N[C@H](CSc2ccc(C)cc2)c2ccc(F)cc2)cc1	–	> 100 µM	> 100 µM	> 100 µM	> 100 µM	> 100 µM	> 100 µM	> 100 µM	> 100 µM	> 100 µM	–	–
C=C1C(=O)OC2/C=C(\CO)C(OC(C)=O)CC(O)/C(C)=C/C(OC(=O)C(C)CC)C12 (stereo unspecified)	91.9 µM and 88.7 µM	36.9 µM	22.7 µM and 69 µM	15.6 µM and 20.3 µM	> 100 µM	> 100 µM	> 100 µM	30.7 µM	28.9 µM and 38.5 µM	32.3 µM and 38 µM	3.76 µM and 11.4 µM	–
O=C1CCSSCCC(=O)NCCN1	> 100 µM	> 100 µM	> 100 µM	> 100 µM	> 100 µM	> 100 µM	> 100 µM	> 100 µM	> 100 µM	> 100 µM	–	–
CC(=O)OC(C)c1cc2c(s1)C(=O)c1sccc1C2=O (stereo unspecified)	4.59 µM	1.68 µM	> 100 µM	3.34 µM	5.08 µM	9.73 µM	2.82 µM	6.2 µM	0.441 µM	3.05 µM	–	1.38 µM
C=C1[C@@H](O)C[C@@]23CC[C@@H]4[C@@]5(C)CC[C@@H](OC(C)=O)C(C)(C)[C@@H]5C[C@@H](OC5OC(COC(C)=O)C(O)C(O)C5O)[C@@]4(C)C2=CC[C@H]3[C@H]1C (stereo partly specified)	23.8 µM	21.4 µM	9.82 µM	21.1 µM	35.3 µM	26.1 µM	17.5 µM	19.2 µM	26 µM	20.5 µM	–	–
N#Cc1nc(-c2cc([N+](=O)[O-])cc([N+](=O)[O-])c2)oc1N	–	> 10 µM	> 10 µM	> 10 µM	> 10 µM	> 10 µM	> 10 µM	> 10 µM	> 10 µM	> 10 µM	–	–
Nc1nn2c(C(Br)Br)cc(C(Br)Br)nc2c1[N+](=O)[O-]	4.72 µM	2.09 µM	0.51 µM	0.248 µM	> 34 µM	12 µM	3.05 µM	5.27 µM	3.11 µM	4.06 µM	–	–
